Laboratory results from patent US9750728B2, “Method and pharmaceutical composition for inhibiting PI3K/AKT/mTOR signaling pathway” (TARGETED THERAPEUTICS, LLC, priority 2012, dated 2017).
Entries after “also recorded” stand apart in the source; their conditions may differ.

Columns and labels:
Assay type in all cases: cell-based
[1] = test system: mTOR (S2448) phosphorylation; assay: Immunoblot analysis of mTOR phosphorylation; conditions: Panc-1; rapamycin, or Y29794 1 μM (FIG. 19D)
Procedure: Mouse anti-PRCP antibody was purchased from Abcam (Cambridge, Mass., USA). Goat anti-PREP antibody was purchased from R&D Systems (Minneapolis, Minn., USA). Mouse anti-R-actin antibody antibodies was from Santa Cruz Biotechnology (Santa Cruz, Calif., USA). Panc-1 pancreatic cancer cells and MCF7 breast cancer cells were cultured to 80% confluence, cells were rinsed three times with pre-cooled PBS, 500 μl of lysis buffer (150 mmol/L Nacl, 1% Triton-x-100, 50 mmol/l TrispH8.0, 1 mmol/L PMSF, 1 ug/L aprotinin, 1 ug/L leupeptin, 1 ug/L peptain) was added to the cells. Cells were scraped and transferred to a centrifuge tube with a pipette. The lysates were spun in a microcentrifuge at maximal speed for 10 minutes at 4° C. to get rid of the insoluble fraction. Protein concentration was determined by Bradford assay. For immunoprecipitation: 2-5 ug protein-specific antibodies were added to 250-500 ug of lysates in a tube and incubated on an ordital shaker 4° C. for 2-4 hours with moderate shaking, then 20 ul Protein G beads (Santa Cruz Biotechnology (Santa Cruz, Calif., USA.) were added and the mixture was incubated with moderate shaking for another hour. After washing the beads in lysis buffer five times, the immunoprecipitates were boiled in 2× Laemmli sample buffer (50 mmoL/L Tris-HCL (pH8.0), 100 mmoL/L DTT, 2% SDS, 0.1% bromophenol blue, 10% glycerol) for five minutes. The proteins were separated by conventional SDS-polyacrylamide gel electrophoresis (SDS-PAGE) electrophoresis and transferred to Amersham Hybond-P PVDF membrane (GE Company, Pittsburgh, Pa., USA). For immunoblot, the membrane was blocked in 2% BSA in TBST buffer (Tris 1.21 g+NaCl 5.84 g+800 ml H2O adjusted to pH 8.0 with HCl) for one hour and then incubated with primary antibodies in TBST at room temperature (22-25° C.) for 2 hours. After washing three times with TBST, the membrane was incubated with HRP-conjugated secondary antibodies for 0.5 hours at room temperature. […]

PI3K [2] = assay: PI3K kinase assay in anti-IRS-1 immunoprecipitates; conditions: Panc-1, 24 hours; ZPP 200 μM, Y29794 0.5 μM or rapamycin alone
Procedure: PI3K kinase assay kit (Calbiochem, Bilerica, Mass., USA) was used to measure the IRS-1-associated or p85-associated PI3K kinase activity in cells. The indicated cells were treated with different conditions for 24 hours. The cells were rinsed three times with pre-cooled PBS, lysed in 500 μl of lysis buffer (150 mmol/L Nacl, 1% Triton-x-100, 50 mmol/1 Tris (pH8.0, 1 mmol/L PMSF, 1 μg/L aprotinin, 1 μg/Lleupeptin, 1 μg/L peptain). Cell lysates (500 μg, in triplicate) of were used for anti-IRS-1 or anti-p85 immunoprecipitation. The immunoprecipitates were resuspended in 200 μl assay buffer and mixed with the fluorescence-labeled PI3K substrate BODIPY-TMR-phosphatidylinositol (100 μM) and ATP (37° C.) for 1 hour. The fluorescence intensity was measured with a fluorometer (excitation wavelength of 540 nm, emission wavelength […]). The difference between fluorescence intensity between control immunoprecipitates (no lysates) and lysate immunoprecipitates was used to indicate PI3K kinase activity. IR-1 anti-rabbit antibody and rabbit anti-PI3K p85 antibody were purchased from Millipore Corporation (Billerica, Mass., USA). Panc-1 anti-p85 immunoprecipitates were used for PI3K kinase assay (FIG. 12) and immunoblot analysis (FIG. 12). Rapamycin treatment in control cells increased PI3K kinase activity (P<0.01). […]

[3] = test system: AKT phosphorylation (S473); assay: Immunoblot analysis of AKT phosphorylation in cancer cells; conditions: 24 hours
Procedure: (§1) 2.2 Immunoblot analysis of gene silencing of PRCP or PREP in cancer cells. Mouse anti-PRCP antibody was purchased from Abcam (Cambridge, Mass., USA). Goat anti-PREP antibody was purchased from R&D Systems (Minneapolis, Minn., USA). Mouse anti-R-actin antibody antibodies was from Santa Cruz Biotechnology (Santa Cruz, Calif., USA). Panc-1 pancreatic cancer cells and MCF7 breast cancer cells were cultured to 80% confluence, cells were rinsed three times with pre-cooled PBS, 500 μl of lysis buffer (150 mmol/L Nacl, 1% Triton-x-100, 50 mmol/l TrispH8.0, 1 mmol/L PMSF, 1 ug/L aprotinin, 1 ug/L leupeptin, 1 ug/L peptain) was added to the cells. Cells were scraped and transferred to a centrifuge tube with a pipette. The lysates were spun in a microcentrifuge at maximal speed for 10 minutes at 4° C. to get rid of the insoluble fraction. Protein concentration was determined by Bradford assay. For immunoprecipitation: 2-5 ug protein-specific antibodies were added to 250-500 ug of lysates in a tube and incubated on an ordital shaker 4° C. for 2-4 hours with moderate shaking, then 20 ul Protein G beads (Santa Cruz Biotechnology (Santa Cruz, Calif., USA.) were added and the mixture was incubated with moderate shaking for another hour. After washing the beads in lysis buffer five times, the immunoprecipitates were boiled in 2× Laemmli sample buffer (50 mmoL/L Tris-HCL (pH8.0), 100 mmoL/L DTT, 2% SDS, 0.1% bromophenol blue, 10% glycerol) for five minutes. The proteins were separated by conventional SDS-polyacrylamide gel electrophoresis (SDS-PAGE) electrophoresis and transferred to Amersham Hybond-P PVDF membrane (GE Company, Pittsburgh, Pa., USA). For immunoblot, the membrane was blocked in 2% BSA in TBST buffer (Tris 1.21 g+NaCl 5.84 g+800 ml H2O adjusted to pH 8.0 with HCl) for one hour and then incubated with primary antibodies in TBST at room temperature (22-25° C.) for 2 hours. After washing three times with TBST, the membrane was incubated with HRP-conjugated secondary antibodies for 0.5 hours at room temperature. After washing the membrane five times with TBST (5 minutes/each), the membrane was incubated with ECL chromogenic reagent (GE Company, Pittsburgh, Pa., USA) for 1-5 minutes. The blots were exposed to films in darkroom for 1-5 minute. The films were developed in an automatic X-OMAT Developer (KODAK, Rochester, N.Y., USA). […] PREP gene silencing (PREP KD) or PRCP gene silencing (PRCP KD) or gene silencing both PRCP and PREP (DKD) in MCF7 cells reduces expression of PREP and/or PRCP proteins compared with control cells (control) (FIGS. 6B & 6C).
3.1 Reduction in AKT phosphorylation is examined by immunoblot using rabbit anti-phospho-AKT […] and rabbit anti-pan AKT antibodies purchased from Cell Signaling Technology (Danvers, Mass., USA) in the cells with gene silencing of PRCP and/or PREP or treated with ZPP or Y29794. Reduction in PRCP and/or PREP is shown by Western blot and quantitative PCR described in 2.2.

[4] = test system: S6K (T389) phosphorylation; assay: Immunoblot analysis of S6K phosphorylation; conditions: Panc-1 cells incl. PRCP and PREP silenced cells, rapamycin (FIG. 18D)
Procedure: 2.2 Immunoblot analysis of gene silencing of PRCP or PREP in cancer cells. Mouse anti-PRCP antibody was purchased from Abcam (Cambridge, Mass., USA). Goat anti-PREP antibody was purchased from R&D Systems (Minneapolis, Minn., USA). Mouse anti-R-actin antibody antibodies was from Santa Cruz Biotechnology (Santa Cruz, Calif., USA). Panc-1 pancreatic cancer cells and MCF7 breast cancer cells were cultured to 80% confluence, cells were rinsed three times with pre-cooled PBS, 500 μl of lysis buffer (150 mmol/L Nacl, 1% Triton-x-100, 50 mmol/l TrispH8.0, 1 mmol/L PMSF, 1 ug/L aprotinin, 1 ug/L leupeptin, 1 ug/L peptain) was added to the cells. Cells were scraped and transferred to a centrifuge tube with a pipette. The lysates were spun in a microcentrifuge at maximal speed for 10 minutes at 4° C. to get rid of the insoluble fraction. Protein concentration was determined by Bradford assay. […]

PI3K [5] = assay: PI3K kinase assay in anti-p85 immunoprecipitates; conditions: Panc-1, 24 hours; ZPP 200 μM, Y29794 0.5 μM or rapamycin alone, vs vehicle
Procedure: PI3K kinase assay kit (Calbiochem, Bilerica, Mass., USA) was used to measure the IRS-1-associated or p85-associated PI3K kinase activity in cells. The indicated cells were treated with different conditions for 24 hours. The cells were rinsed three times with pre-cooled PBS, lysed in 500 μl of lysis buffer (150 mmol/L Nacl, 1% Triton-x-100, 50 mmol/1 Tris (pH8.0, 1 mmol/L PMSF, 1 μg/L aprotinin, 1 μg/Lleupeptin, 1 μg/L peptain). Cell lysates (500 μg, in triplicate) of were used for anti-IRS-1 or anti-p85 immunoprecipitation. The immunoprecipitates were resuspended in 200 μl assay buffer and mixed with the fluorescence-labeled PI3K substrate BODIPY-TMR-phosphatidylinositol (100 μM) and ATP (37° C.) for 1 hour. The fluorescence intensity was measured with a fluorometer (excitation wavelength of 540 nm, emission wavelength […]). The difference between fluorescence intensity between control immunoprecipitates (no lysates) and lysate immunoprecipitates was used to indicate PI3K kinase activity. IR-1 anti-rabbit antibody and rabbit anti-PI3K p85 antibody were purchased from Millipore Corporation (Billerica, Mass., USA). Panc-1 anti-p85 immunoprecipitates were used for PI3K kinase assay (FIG. 12) and immunoblot analysis (FIG. 12). Rapamycin treatment in control cells increased PI3K kinase activity (P<0.01).

IRS-1 = assay: Immunoblot analysis of IRS-1 (protein, phosphorylation, half-life, p85 coimmunoprecipitation)
Procedure: as §1
3.2 AKT phosphorylation was examined by immunoblot as described in 3.1. IRS-1 expression was analyzed by immunoblot using anti-IRS-1 antibodies purchased from Santa Cruz Biotechnology (Santa Cruz, Calif., USA). Reduction in PRCP and/or PREP by gene silencing is shown by Western blot and quantitative PCR described in 2.2.
3.4 ZPP or Y29794 inhibits IRS-1 tyrosine phosphorylation and p85 PI3K subunit interaction with IRS-1 and PI3K kinase activity. Panc-1 cells were treated with ZPP (200 μM) or Y29794 (0.5 μM) for 24 hours. Lysates were immunoprecipitated with anti-IRS-1 antibodies and the anti-IRS-1 immunoprecipitates were used for PI3K kinase assay and anti-IRS-1 phospho-tyrosine and anti-p85 immunoblot analysis (FIG. 13). ZPP or Y29794 decreased IRS-1-associated PI3K activity (FIG. 13, upper) and tyrosine phosphorylation of IRS-1 and p85 (FIG. 13, lower).
As described in Example 2.2 and above, the cells with PRCP and PREP gene silencing were used for analysis of PRCP and PREP gene silencing and inhibition of serine phosphorylation and degradation of IRS-1 and its effects on response to rapamycin. […] Compared to control cells, DKD cells show […] serine phosphorylation (S307 and S636/639) of IRS-1 alongside with decreased tyrosine phosphorylation of IRS-1 (FIG. 18B). […]

Panc-1 = assay: Colony formation assay (clonogenic assay); conditions: Panc-1, rapamycin alone 1 nM and 10 nM
Procedure: 1.2. Colony formation assay (clonogenic assay) was used to analyze the effect of ZPP or Y29794 on cancer cell survival. 10^3 Panc-1 cells were plated in 100 mm petri dish in triplicate fed with 10 ml of DMEM containing 10% FBS. The cells were then treated by ZPP for 7 days and cultured for additional three weeks. Cells were then rinsed three times with PBS, fixed with 100% ethanol for 15 min, and stained with 2% crystal violet ethanol solution. The stained colonies were counted. All the results are statistically analyzed by one way ANOVA and two tailed t-test.

## CO[C@H]1C[C@@H]2CC[C@@H](C)[C@@](O)(O2)C(=O)C(=O)N2CCCC[C@H]2C(=O)O[C@H]([C@H](C)C[C@@H]2CC[C@@H](O)[C@H](OC)C2)CC(=O)[C@H](C)/C=C(\C)[C@@H](O)[C@@H](OC)C(=O)[C@H](C)C[C@H](C)/C=C/C=C/C=C/1C [rapamycin, (3S,6R,7E,9R,10R,12R,14S,15E,17E,19E,21S,23S,26R,27R,34aS)-9,10,12,13,14,21,22,23,24,25,26,27,32,33,34,34a-hexadecahydro-9,27-dihydroxy-3-[(1R)-2-[(1S,3R,4R)-4-hydroxy-3-methoxycyclohexyl]-1-methylethyl]-10,21-dimethoxy-6,8,12,14,20,26-hexamethyl-23,27-epoxy-3H-pyrido[2,1-c][1,4]oxaazacyclohentriacontine-1,5,11,28,29 (4H,6H,31H)-pentone]
[1]
  mTOR (S2448) phosphorylation: inhibits; also recorded: completely inhibited
PI3K [2]
  IRS-1-associated PI3K activity: increases; also recorded: significantly elevated
[3]; MCF7, rapamycin 10 nM
  AKT phosphorylation: increased; also recorded: induced an increase
[3]; Panc-1, rapamycin 10 nM
  AKT phosphorylation: significantly increased; also recorded: induced an increase
[4]
  phosphorylation of S6K (T389): completely inhibited
PI3K [5]
  PI3K kinase activity (p85-associated): increases; also recorded: significantly elevated
IRS-1; MCF7, rapamycin 10 nM, 24 hours
  IRS-1 protein: increased; also recorded: induced an increase
IRS-1; Panc-1, rapamycin 10 nM (FIG. 10A legend)
  tyrosine phosphorylation of IRS-1: increased
IRS-1; Panc-1, rapamycin 10 nM, 24 hours
  IRS-1 protein: significantly increased; also recorded: induced an increase
IRS-1; control Panc-1 cells, rapamycin (FIG. 18D)
  serine phosphorylation (S307 and S636/639) of IRS-1: inhibits; also recorded: inhibiting
IRS-1; control Panc-1 cells, rapamycin, concentration not given
  IRS-1 protein: increases; also recorded: induced increase
Panc-1
  cell survival (colony formation): did not affect
